Reference: US11129825B2, “Polysubunit opioid prodrugs resistant to overdose and abuse” (Elysium Therapeutics, Inc., priority 2015, dated 2021)

Assays:
trypsin = assay: Inhibition of trypsin-catalyzed hydrolysis of Nα-Benzoyl-L-arginine 4-nitroanilide hydrochloride in vitro; format: biochemical; details: pH 7.4, 37° C.; for Percent Nα-Benzoyl-L-arginine 4-nitroanilide hydrochloride remaining: trypsin 2,000 BAEE
Protocol: This example describes in vitro experiments with a compound of the disclosure to provide a mechanism of overdose protection.
The effect of increasing concentrations of compounds 2 and 3 on the rate and extent of the trypsin-catalyzed hydrolysis of a commercially available trypsin substrate Nα-Benzoyl-L-arginine 4-nitroanilide hydrochloride was evaluated in the presence of trypsin (2,000 BAEE activity) in a pH 7.4 phosphate buffer at 37° C. in vitro. Both buffer alone (i.e. no trypsin) and trypsin (i.e. no compound 2 or 3) controls were run contemporaneously.

[1] = Pharmacokinetics of delivered hydrocodone after increasing oral doses in dogs; format: in vivo
Protocol: The effect of increasing oral doses of compounds 2 and 3 on the pharmacokinetics of delivered hydrocodone (i.e. measured plasma hydrocodone concentrations vs. time) was evaluated in dogs. Specific pharmacokinetics parameters of the delivered opioid were calculated (e.g. Cmax, Tmax, AUC) and are presented below in the Table below.

opioid receptors = details: after oral doses; cited from earlier work
[2] = oral administration; cited from earlier work
[3] = hydrochloride salt; cited from earlier work

**Q.** For `COc1ccc2c3c1O[C@H]1C(OC(=O)N4CCC(C(=O)NCCCC[C@H](NC(=O)OCc5ccccc5)C(=O)NCCOc5ccc(C(=O)Oc6ccc7cc(C(=N)N)ccc7c6)cc5)CC4CNC(=O)[C@@H](CCCNC(=N)N)NC(=O)CNC(C)=O)=CC[C@H]4[C@@H](C2)N(C)CC[C@]314` (stereo partly shown) [Compound 2], which “Trypsin inhibition with increasing compound concentration” value (trypsin; 1 uM to 1 mM, result in words) is on record?
**A.** progressively inhibit trypsin in a concentration dependent manner

**Q.** And the “Percent Nα-Benzoyl-L-arginine 4-nitroanilide hydrochloride remaining” value (trypsin; compound 1 uM, 2 min)?
**A.** 100%

**Q.** What about the “Percent Nα-Benzoyl-L-arginine 4-nitroanilide hydrochloride remaining” value (trypsin; compound 1 uM, 13 min) of the same compound?
**A.** 39%

**Q.** And the “Percent Nα-Benzoyl-L-arginine 4-nitroanilide hydrochloride remaining” value (trypsin; compound 1 uM, 24 min)?
**A.** 0%

**Q.** And the “Percent Nα-Benzoyl-L-arginine 4-nitroanilide hydrochloride remaining” value (trypsin; compound 1 uM, 80 min)?
**A.** 0%

**Q.** What about the “Percent Nα-Benzoyl-L-arginine 4-nitroanilide hydrochloride remaining” value (trypsin; compound 1 uM, 102 min) of the same compound?
**A.** 0%

**Q.** What about the “Percent Nα-Benzoyl-L-arginine 4-nitroanilide hydrochloride remaining” value (trypsin; compound 1 uM, 119 min) of the same compound?
**A.** 0%

**Q.** And the “Percent Nα-Benzoyl-L-arginine 4-nitroanilide hydrochloride remaining” value (trypsin; compound 1 uM, 234 min)?
**A.** 0%

**Q.** What about the “Percent Nα-Benzoyl-L-arginine 4-nitroanilide hydrochloride remaining” value (trypsin; compound 10 uM, 2 min) of the same compound?
**A.** 100%

**Q.** And the “Percent Nα-Benzoyl-L-arginine 4-nitroanilide hydrochloride remaining” value (trypsin; compound 10 uM, 13 min)?
**A.** 98%

**Q.** And the “Percent Nα-Benzoyl-L-arginine 4-nitroanilide hydrochloride remaining” value (trypsin; compound 10 uM, 24 min)?
**A.** 96%

**Q.** What about the “Percent Nα-Benzoyl-L-arginine 4-nitroanilide hydrochloride remaining” value (trypsin; compound 10 uM, 80 min) of the same compound?
**A.** 94%

**Q.** What about the “Percent Nα-Benzoyl-L-arginine 4-nitroanilide hydrochloride remaining” value (trypsin; compound 10 uM, 102 min) of the same compound?
**A.** 93%

**Q.** And the “Percent Nα-Benzoyl-L-arginine 4-nitroanilide hydrochloride remaining” value (trypsin; compound 10 uM, 119 min)?
**A.** 94%

**Q.** And the “Percent Nα-Benzoyl-L-arginine 4-nitroanilide hydrochloride remaining” value (trypsin; compound 10 uM, 234 min)?
**A.** 87%

**Q.** And the “Percent Nα-Benzoyl-L-arginine 4-nitroanilide hydrochloride remaining” value (trypsin; compound 100 uM, 2 min)?
**A.** 100%

**Q.** And the “Percent Nα-Benzoyl-L-arginine 4-nitroanilide hydrochloride remaining” value (trypsin; compound 100 uM, 13 min)?
**A.** 98%

**Q.** What about the “Percent Nα-Benzoyl-L-arginine 4-nitroanilide hydrochloride remaining” value (trypsin; compound 100 uM, 24 min) of the same compound?
**A.** 100%

**Q.** And the “Percent Nα-Benzoyl-L-arginine 4-nitroanilide hydrochloride remaining” value (trypsin; compound 100 uM, 80 min)?
**A.** 99%

**Q.** And the “Percent Nα-Benzoyl-L-arginine 4-nitroanilide hydrochloride remaining” value (trypsin; compound 100 uM, 102 min)?
**A.** 99%

**Q.** And the “Percent Nα-Benzoyl-L-arginine 4-nitroanilide hydrochloride remaining” value (trypsin; compound 100 uM, 119 min)?
**A.** 99%

**Q.** What about the “Percent Nα-Benzoyl-L-arginine 4-nitroanilide hydrochloride remaining” value (trypsin; compound 100 uM, 234 min) of the same compound?
**A.** 99%

**Q.** And the “Percent Nα-Benzoyl-L-arginine 4-nitroanilide hydrochloride remaining” value (trypsin; compound 1 mM, 2 min)?
**A.** 100%

**Q.** And the “Percent Nα-Benzoyl-L-arginine 4-nitroanilide hydrochloride remaining” value (trypsin; compound 1 mM, 13 min)?
**A.** 100%

**Q.** What about the “Percent Nα-Benzoyl-L-arginine 4-nitroanilide hydrochloride remaining” value (trypsin; compound 1 mM, 24 min) of the same compound?
**A.** 99%

**Q.** And the “Percent Nα-Benzoyl-L-arginine 4-nitroanilide hydrochloride remaining” value (trypsin; compound 1 mM, 80 min)?
**A.** 100%

**Q.** And the “Percent Nα-Benzoyl-L-arginine 4-nitroanilide hydrochloride remaining” value (trypsin; compound 1 mM, 102 min)?
**A.** 100%

**Q.** And the “Percent Nα-Benzoyl-L-arginine 4-nitroanilide hydrochloride remaining” value (trypsin; compound 1 mM, 119 min)?
**A.** 100%

**Q.** And the “Percent Nα-Benzoyl-L-arginine 4-nitroanilide hydrochloride remaining” value (trypsin; compound 1 mM, 234 min)?
**A.** 100%

**Q.** What about the “Release of hydrocodone in vivo with increasing oral doses” value ([1]; increasing oral doses, dogs, result in words) of the same compound?
**A.** progressively attenuate the release of hydrocodone in vivo

**Q.** And the “AUC0-8 h of hydrocodone in dog plasma” value ([1]; oral dose 1.66 umol/kg)?
**A.** 7.79 ng·h/mL

**Q.** And the “Maximum concentration (Cmax) of hydrocodone in dog plasma” value (“Maximum concentration (Cmax)” for short) ([1]; oral dose 1.66 umol/kg)?
**A.** 2.87 ng/mL HC

**Q.** And the “Time of maximum concentration (Tmax) of hydrocodone in dog plasma” value (“Time of maximum concentration” for short) ([1]; oral dose 1.66 umol/kg)?
**A.** 0.96 h

**Q.** What about the “AUC0-8 h of hydrocodone in dog plasma” value ([1]; oral dose 5 umol/kg) of the same compound?
**A.** 27 ng·h/mL

**Q.** And the “Maximum concentration (Cmax)” value ([1]; oral dose 5 umol/kg)?
**A.** 6.49 ng/mL HC

**Q.** And the “Time of maximum concentration” value ([1]; oral dose 5 umol/kg)?
**A.** 1.38 h

**Q.** And the “AUC0-8 h of hydrocodone in dog plasma” value ([1]; oral dose 10 umol/kg)?
**A.** 37.68 ng·h/mL

**Q.** What about the “Maximum concentration (Cmax)” value ([1]; oral dose 10 umol/kg) of the same compound?
**A.** 8.37 ng/mL HC

**Q.** What about the “Time of maximum concentration” value ([1]; oral dose 10 umol/kg) of the same compound?
**A.** 2.08 h

**Q.** And the “AUC0-8 h of hydrocodone in dog plasma” value ([1]; oral dose 35 umol/kg)?
**A.** 64.38 ng·h/mL

**Q.** What about the “Maximum concentration (Cmax)” value ([1]; oral dose 35 umol/kg) of the same compound?
**A.** 11.87 ng/mL HC

**Q.** And the “Time of maximum concentration” value ([1]; oral dose 35 umol/kg)?
**A.** 2.13 h

**Q.** Which Duration of action (opioid receptors) does the source give for `C[C@H]1[C@H]2Cc3ccc(O)cc3[C@]1(C)CCN2CC1CC1` [cyclazocine] here?
**A.** ~24 h

**Q.** For `O=C1CC[C@@]2(O)[C@H]3Cc4ccc(O)c5c4[C@@]2(CCN3CC2CC2)[C@H]1O5` [naltrexone], which Oral bioavailability [2] is on record?
**A.** 5-40%

**Q.** And the Duration of action (opioid receptors)?
**A.** ~24 h

**Q.** What about the Solubility in water [3] of the same compound?
**A.** about 100 mg/mL
